What is called melting point is the temperature of the solid-liquid transition.

As to `COc1ccc(C(=O)Nc2ccc(C)c(Cl)c2)cc1N`, the melting point fell in the range of 153 to 157 °C.

Compound `Cc1cccc([C@@H]2C[C@H]3C=C(c4c[nH]c(-c5ccc(F)cc5)c4-c4ccncc4)CCN3C2)c1` returned a melting point of 204 to 206 °C.

With `COCCCNCC(=O)Nc1ccc(C(=O)OC)cc1`, the melting point lay within 49 to 50 °C.

As for `Cc1nc(N2CCCC(CO)C2)c2nc(-c3ccccc3)cc-2[nH]1` (centres undefined), the melting point lay in the range of 255 to 256 °C.

The compound `N#Cc1ccc(C=C(C(=O)C2CC2)C(=O)C2CC2)cc1` showed a melting point of 100 to 102 °C.

The compound `CCCCCCCCCCOc1ccc(Cc2cccc(C(=O)O)c2)cc1CCC(=O)O` returned a melting point of 146 to 148 °C.

In turn, `CC=Cc1cc(-c2ccc(F)cc2)cc(C(=O)O)c1O` displayed a melting point of 196 to 200 °C.

Consider `O=C1NCc2nc3ccc(Cl)cc3c(=O)n2-c2ccccc21`, for which the melting point was in the range of 286 to 288 °C.

The compound `Clc1cccc(-c2nc(Cl)c3ccccc3n2)c1` had a melting point of 157 to 158 °C.

Compound `COc1cc2ncnc(NC3=CC(=O)C4(c5ccccc5)OC4C3=O)c2cc1OC` (centres undefined) yielded a melting point of 252 to 253 °C.

The compound `N#Cc1cc(F)c(Cl)c(Br)c1Cl` yielded a melting point of 110 to 112 °C.

In turn, `CC(C)(C)C(NC(=O)c1cccc(F)c1)Nc1c(Nc2cccnc2)c(=O)c1=O` (centres undefined) gave a melting point of 231 to 232 °C.

`CCN1CCC(C(=O)NO)(S(=O)(=O)c2ccc(Oc3ccc(Cl)cc3)cc2)CC1` returned a melting point of 158 °C.

For the compound `CC(=O)Cn1cnc2c1c(=O)[nH]c(=O)n2C`, the melting point was under 295 °C.

`COC(=O)CC[C@H](NC(=O)c1ccc(CCn2cnc3nccc-3c2NO)cc1)C(=O)OC` came in with a melting point of 170 to 172 °C.

In turn, `CCc1cccc(CC)c1NC(=O)C(Cc1ccccc1)NC(C)=O` (centres undefined) returned a melting point of 205 to 206 °C.

For `O=C(CCC(=O)N1CCC(c2ccc(Cl)cc2)CC1)c1ccc2c(c1)CCN(C(=O)C(F)(F)F)CC2`, the melting point was in the range of 131 to 132 °C.

Turning to `O=C(O)CCCc1cc2cc(Cl)ccc2n1S(=O)(=O)c1cccc2cccnc12`, the melting point is 217 to 219 °C.

Compound `CC1(C)CCC(C)(C)c2cc(N)ccc21` returned a melting point of 63 to 65 °C.

For the compound `O=C1c2ccccc2C(=O)c2sc(-c3ccc([N+](=O)[O-])o3)nc21`, the melting point was over 300 °C.

On to `CCn1c(=O)ccc2ccccc21`, for which the melting point lay within 52 to 54 °C.

The compound `CC(=O)N[C@H](CF)CCC(=O)O` showed a melting point of 80 to 83 °C.

In the case of `O=C(O)c1ccccc1C(=O)NCc1ccccn1`, the melting point fell in the range of 140 to 142 °C.

Compound `O=c1c2c(Cc3cccc(OC(F)(F)F)c3)n[nH]c2c2cccnc2n1-c1cccc(C(F)(F)F)c1` returned a melting point of 129 to 132 °C.

`O=C(N[C@H](Cc1cccc(OC(F)(F)C(F)F)c1)[C@@H](O)c1ccc(F)nc1)c1ccc(F)c2ccccc12` (racemic) gave a melting point of 148 to 149 °C.

Turning to `CC(CCCC(C)(C)O)C1CC(=O)C2=C3CCC4CC(O)CCC4(C)C3CCC21C` (centres undefined), the melting point lay in the range of 177 to 179 °C.

`COc1cc(NCCN2CCC(Nc3nc4ccccc4n3Cc3ccc(F)cc3)CC2)ncn1` returned a melting point of 146 °C.

`CC(C)Cn1c(C(=O)O)c(-c2ccc(F)cc2)c2cc(OCc3ccccc3)ccc2c1=O` displayed a melting point of 236 to 237 °C.

As for `CCC(CC)C(=O)O[C@H]1C[C@H](O)C=C2C=C[C@H](C)[C@H](CC[C@@H]3C[C@@H](O)CC(=O)O3)[C@H]21`, the melting point was determined as 158 °C.

For `Nc1c(C(=O)c2cccc(Br)c2)[nH]c2cc(Cl)ccc12`, the melting point was 142 to 143 °C.

Take `COc1ccc(C2c3[nH]c4ccccc4c3CCN2C(=O)C=Cc2ccccc2)cc1` (centres undefined): the melting point was 127 °C.

Consider `CCC(CO)Nc1nc(NCc2ccccc2N)c2ncn(C(C)C)c2n1` (racemic), for which the melting point was 149 to 151 °C.

`O=C(O)/C=C/c1cc(OCC2CC2)nn1Cc1ccc(C(F)(F)F)cc1Cl` registered a melting point of 195 to 196 °C.

The compound `CC(C)(C)OC(=O)C1CCCN(C(=O)OCc2ccccc2)N1C(=O)C(Br)CCBr` (centres undefined) showed a melting point of 81 to 82 °C.

Turning to `Cc1ccc2oc(=O)c(-c3ccccc3)c(OCCN3CCOCC3)c2c1`, the melting point is 96 °C.

For the compound `CC1(C)CC(=O)Oc2cc(O)ccc21`, the melting point was in the range of 84 to 85 °C.

`NS(=O)(=O)c1ccc(-n2nc(C(F)(F)F)cc2-c2ccc(F)cc2)cc1F` yielded a melting point of 127 to 130 °C.

With `COC(=O)C(=O)c1cn2c3c(cccc13)C(OC(C)=O)CC2` (centres undefined), the melting point lay within 165 to 168 °C.

Regarding `CCOC(=O)c1cc(-c2csc(C(=O)OCC)n2)[nH]n1`, the melting point is 104 to 106 °C.

Compound `C=C(CCCCC)C(=O)c1ccc(OCC(=O)O)c(Cl)c1Cl` registered a melting point of 103 to 106 °C.

For `COc1cc(OC)c2c(=O)[nH]c(-c3cc(C)c(OCC(C)(C)O)c(C)c3)cc2c1`, the melting point lay in the range of 252 to 254 °C.

`Cc1nc(NCCSCc2nc[nH]c2C)[nH]c(=O)c1Cc1cccnc1` registered a melting point of 128 to 131 °C.

With `Cc1ccc2sc(S(N)(=O)=O)cc2c1`, the melting point is 212 to 213 °C.

For `Cc1ccc(C)n1CCNC(=O)Nc1ccc(C(=O)O)cc1`, the melting point fell in the range of 248 to 250 °C.

The compound `CCN(CC)CCC1CCCCN1CCNC(=O)N1c2ccccc2C(=O)Nc2cccnc21` (centres undefined) had a melting point of 161 to 162 °C.

With `COc1ccc2c(c1)c(Cc1cc(=O)n(C3CCCCCC3)[nH]1)c(C)n2C(=O)c1ccc(Cl)cc1`, the melting point lay within 145 to 148 °C.

In the case of `CCN(CC)CCN1c2ccccc2N(C)C(=O)c2ccc(C)nc21`, the melting point was in the range of 91 to 93 °C.

On to `CS(=O)(=O)Nn1c(=O)[nH]c2cc(C(F)(F)F)c(-n3cnc(Br)c3)cc2c1=O`, for which the melting point was 229 to 233 °C.

Compound `CC(=O)ON=C1CCCN(C(=O)c2ccc(NC(=O)c3ccccc3Cl)cc2)c2ccccc21` had a melting point of 142 to 144 °C.

Take `CN1C2CCC(N3C(=O)c4ccccc4C3=O)C1CC2` (centres undefined): the melting point fell in the range of 145 to 147 °C.

`CCCCC(CC)COc1ccc2c(-c3ccc(C=O)cc3)c3cc(OCC(CC)CCCC)ccc3c(-c3ccc(C=O)cc3)c2c1` (centres undefined) showed a melting point of 125 to 127 °C.

As to `NC(=O)COC(=O)c1ccccc1Cl`, the melting point is 117 to 120 °C.

`NC(=O)c1c(F)cccc1[N+](=O)[O-]` yielded a melting point of 161 to 162 °C.

The compound `CC(C)(C)OC(=O)Nc1cc(OCc2ccccc2)c2ncccc2c1I` returned a melting point of 118 to 119 °C.

With `Cc1cc(N)c(C)nc1OC(F)F`, the melting point is 38.4 to 39.4 °C.

Consider `CC1=C(O)C(=O)C(C)(C(C)O)O1` (centres undefined), for which the melting point lay within 112 to 114 °C.

As for `CCCCc1nc(SCC)c2ccccc2c1Cc1ccc(C(=O)OC)cc1`, the melting point worked out at 70 °C.

The compound `COc1cc(Nc2ncc(C#N)c(-c3ccccc3)n2)cc(OC)c1OC` showed a melting point of 98 °C.

On to `O=C(O)CCCC1CCN(CCOC(c2ccc(F)cc2)c2ccc(F)cc2)CC1`, for which the melting point was 145 to 147 °C.

For `COc1ccc(C2C(=O)c3ccc(OC)cc3C2=O)cc1` (centres undefined), the melting point stood at 163 °C.

As for `CC(Oc1ccc(Oc2ccc(Cl)cc2)cc1)C(=O)N1CCCO1` (centres undefined), the melting point is 98 to 100 °C.

As for `CCCC12CCC3=C(CCc4cc(O)ccc43)C1CCC2O` (centres undefined), the melting point fell in the range of 210 to 218 °C.

In turn, `C=Cc1ccc(COc2ccc(CO)cc2)cc1` gave a melting point of 110 to 112 °C.

Take `CC(C)C1Cc2cc(OCC(=O)O)cc(Cl)c2C1=O` (centres undefined): the melting point fell in the range of 126 to 128 °C.

As to `COc1ccc(CC(C)NCC(O)c2ccccc2OC)cc1OC` (centres undefined), the melting point fell in the range of 125 to 126 °C.

Regarding `NNc1c(S(=O)(=O)C(F)(F)F)cnn1-c1c(Cl)cc(C(F)(F)F)cc1Cl`, the melting point worked out at 154 °C.

For `NC(=O)c1c(Cl)ccc([N+](=O)[O-])c1Cl`, the melting point was 163 to 165 °C.

`CC(C)[C@]1(CCc2ccccc2)CC(O)=C(Sc2cc3sc(N)nc3cc2C(C)(C)C)C(=O)O1` returned a melting point of 186 to 188 °C.

In the case of `NCc1ccc(OCc2ccccc2)c(O)c1`, the melting point lay in the range of 122 to 125 °C.

The compound `N#Cc1ccccc1N1CCN(CCC=C2c3ccccc3CCc3ccccc32)CC1` came in with a melting point of 112 to 114 °C.

As to `O=C(O)c1cc(S(=O)(=O)Oc2ccccc2-c2ccc(-c3c(Cc4ccccc4)oc4ccccc34)cc2)ccc1O`, the melting point is 171 to 173 °C.

Compound `COc1ccc2c(c1)C(N1CCN(C)CC1)c1ccccc1C=C2` (centres undefined) registered a melting point of 118 °C.

Turning to `CCOC(=O)C1=Cc2cc(-c3ccc(Cl)cc3)ccc2OCC1`, the melting point was in the range of 131 to 134 °C.

The compound `Cc1ccc(S(=O)(=O)NC(=O)N2C(=O)C(C)N2C(c2ccccc2)c2ccccc2)cc1` (centres undefined) gave a melting point of 155 to 159 °C.

Take `OC1CCN(CC(O)c2cc(-c3ccccc3)on2)CC1` (centres undefined): the melting point was 117 to 119 °C.

`O=C(O)c1cc(-c2ccc(Cl)cc2)nn1Cc1ccc(Cl)cc1Cl` displayed a melting point of 218 °C.

For the compound `CNC(=O)Oc1ccc2c(N(C)CCN3CCOCC3)noc2c1`, the melting point fell in the range of 94 to 95 °C.

`O=C(O)CCc1cc2cc(-c3ccc(C(F)(F)F)cc3)ccc2n1S(=O)(=O)c1ccccc1` registered a melting point of 162 °C.

As to `COc1ccc(Cn2c(=O)[nH]c3nccnc3c2=O)cc1`, the melting point fell in the range of 233 to 234 °C.

As for `CC(=O)Nc1cccc2c1Cc1ccccc1C2=O`, the melting point was 266 °C.

`CC(=O)Oc1ccccc1CC1CNC(=O)O1` (centres undefined) showed a melting point of 98 to 99 °C.

In turn, `Nc1cc(C(F)(F)F)ccc1S(=O)(=O)c1ccccc1` had a melting point of 142 to 143 °C.

For the compound `O=[N+]([O-])c1ccc(C=[N+]([O-])c2cccc(CO)c2)o1`, the melting point fell in the range of 187 to 188 °C.

Compound `CCOC(=O)c1c(C)nc2[nH]c3ccccc3c2c1N` registered a melting point of 253 to 254 °C.

In the case of `CCCOc1ccccc1-c1nc2nc(N)ncc2c(=O)[nH]1`, the melting point was 261 to 262 °C.

In the case of `NS(=O)(=O)c1c(Cl)nc2n1CCS2(=O)=O`, the melting point fell in the range of 246 to 247 °C.

`CC(c1ccccc1)N1C(=O)NC(=O)C1O` (centres undefined) displayed a melting point of 139 to 140 °C.

`CNC(=O)Cn1c(-c2cccc(Br)c2)nc2cccnc21`: the melting point fell in the range of 199 to 201 °C.

As to `C[C@H](NC(=O)[C@@H](Cc1ccccc1)NS(=O)(=O)Cc1ccccc1)C(=O)NC1CCc2nc(N)sc2C1` (some centres undefined), the melting point is 122 to 125 °C.

The values are drawn from a melting point compilation (Tetko et al.; mined from patent text by program, amines drawn as free bases though some values may be those of a salt).
